Experimental data reported in patent publication US20260285850A1, “SUBSTITUTED OXAZOLIDINONES AND IMIDAZOLINONES AS HERBICIDES” (FMC CORPORATION, priority 2023, published 2026).

Experiments:
Assay type in all cases: in vivo
[1] = tested on: ducksalad (Heteranthera limosa); assay: Test B flooded paddy test, visual plant response rating 0-100; details: 250 g ai/ha, Flood, applied to paddy water, evaluated after 13 days
Method in brief: (§1)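 Plants were grown to the 2-leaf stage, then pots were flooded to 3 cm above the soil and compound was applied directly to the paddy water, with that depth kept throughout.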

rice (Oryza sativa) = assay: as above; details: 250 g ai/ha, Flood, applied to paddy water, evaluated after 13 days
Method in brief: as §1

[2] = tested on: sedge, umbrella (small-flower umbrella sedge, Cyperus difformis); assay: as above; details: 250 g ai/ha, Flood, applied to paddy water, evaluated after 13 days
Method in brief: as §1

[3] = tested on: barnyardgrass (Echinochloa crusgalli); assay: as above; details: 250 g ai/ha, Flood, applied to paddy water, evaluated after 13 days
Method in brief: as §1

[4] = tested on: oat, wild (wild oat, Avena fatua); assay: Test A postemergence application, visual injury rating 0-100; details: 10 days
Method in brief: (§2)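 Preemergence directed soil spray or postemergence spray (2-10 cm, 1-2 leaf); loam/sand mix; compound in non-phytotoxic solvent + surfactant. Greenhouse, 10 d. Visual injury vs untreated, 0 = none, 100 = complete control.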

[5] = tested on: ryegrass, Italian (italian ryegrass, Lolium multiflorum); assay: as above; details: 10 days
Method in brief: as §2

[6] = tested on: ragweed (common ragweed, Ambrosia artemisiifolia); assay: as above; details: 10 days
Method in brief: as §2

[7] = tested on: blackgrass (Alopecurus myosuroides); assay: as above; details: 10 days
Method in brief: as §2

[8] = tested on: palmer (palmer amaranth, palmer pigweed, Amaranthus palmeri); assay: as above; details: 10 days
Method in brief: as §2

[9] = tested on: galium (catchweed bedstraw, Galium aparine); assay: as above; details: 10 days
Method in brief: as §2

soybean (Glycine max) [10] = assay: as above; details: 10 days
Method in brief: as §2

[11] = tested on: barnyardgrass (Echinochloa crus-galli); assay: as above; details: 10 days
Method in brief: as §2

[12] = tested on: horseweed (Erigeron canadensis); assay: as above; details: 10 days
Method in brief: as §2

[13] = tested on: wheat (Triticum aestivum); assay: as above; details: 10 days
Method in brief: as §2

[14] = tested on: green foxtail (Setaria viridis); assay: as above; details: 10 days
Method in brief: as §2

corn (Zea mays) [15] = assay: as above; details: 10 days
Method in brief: as §2

kochia (Bassia scoparia) [16] = assay: as above; details: 10 days
Method in brief: as §2

[17] = tested on: oat, wild (wild oat, Avena fatua); assay: Test A preemergence soil spray, visual injury rating 0-100; details: 10 days, 0 = no effect, 100 = complete control
Method in brief: as §2

[18] = tested on: ryegrass, Italian (italian ryegrass, Lolium multiflorum); assay: as above; details: 10 days, 0 = no effect, 100 = complete control
Method in brief: as §2

[19] = tested on: ragweed (common ragweed, Ambrosia artemisiifolia); assay: as above; details: 10 days, 0 = no effect, 100 = complete control
Method in brief: as §2

[20] = tested on: blackgrass (Alopecurus myosuroides); assay: as above; details: 10 days, 0 = no effect, 100 = complete control
Method in brief: as §2

[21] = tested on: palmer (palmer amaranth, palmer pigweed, Amaranthus palmeri); assay: as above; details: 10 days, 0 = no effect, 100 = complete control
Method in brief: as §2

soybean (Glycine max) [22] = assay: as above; details: 10 days, 0 = no effect, 100 = complete control
Method in brief: as §2

[23] = tested on: barnyardgrass (Echinochloa crus-galli); assay: as above; details: 10 days, 0 = no effect, 100 = complete control
Method in brief: as §2

[24] = tested on: wheat (Triticum aestivum); assay: as above; details: 10 days, 0 = no effect, 100 = complete control
Method in brief: as §2

[25] = tested on: green foxtail (Setaria viridis); assay: as above; details: 10 days, 0 = no effect, 100 = complete control
Method in brief: as §2

corn (Zea mays) [26] = assay: as above; details: 10 days, 0 = no effect, 100 = complete control
Method in brief: as §2

kochia (Bassia scoparia) [27] = assay: as above; details: 10 days, 0 = no effect, 100 = complete control
Method in brief: as §2

[28] = 31 g ai/ha, postemergence, 0 = no effect, 100 = complete control
[29] = Postemergence, 125 g ai/ha, 0 is no effect, 100 is complete control

## CSCCOC(=O)C1=CCC(NC(=O)C2(C)CN(c3cc(F)cc(F)c3)C(=O)O2)C1 (stereo not shown) [Compound 23]
[1]
  Plant response rating, Ducksalad (0 to 100 scale, 0 is no effect and 100 is complete control): 70
Rice (Oryza sativa)
  Plant response rating, Rice (0 to 100 scale, 0 is no effect and 100 is complete control): 85
[2]
  Plant response rating, Sedge, Umbrella (0 to 100 scale, 0 is no effect and 100 is complete control): 86
[3]
  Plant response rating, Barnyardgrass (0 to 100 scale, 0 is no effect and 100 is complete control): 95
[4]; [28]
  Oat, Wild plant response rating (0-100): 90
[4]; [29]
  Oat, Wild plant response rating (0 to 100 scale): 100
[5]; [28]
  Ryegrass, Italian plant response rating (0-100): 80
[5]; [29]
  Ryegrass, Italian plant response rating (0 to 100 scale): 70
[6]; [28]
  Ragweed plant response rating (0-100): 60
[6]; [29]
  Ragweed plant response rating (0 to 100 scale): 70
[7]; [28]
  Blackgrass plant response rating (0-100): 90
[7]; [29]
  Blackgrass plant response rating (0 to 100 scale): 100
[8]; [28]
  Amaranth, Palmer plant response rating (0-100): 80
[8]; [29]
  Amaranth, Palmer / Pigweed, Palmer plant response rating (0 to 100 scale): 90
[9]; [28]
  Galium plant response rating (0-100): 80
[9]; [29]
  Galium plant response rating (0 to 100 scale): 90
Soybean (Glycine max) [10]; [28]
  Soybean plant response rating (0-100): 80
Soybean (Glycine max) [10]; [29]
  Soybean plant response rating (0 to 100 scale): 90
[11]; [28]
  Barnyardgrass plant response rating (0-100): 100
[11]; [29]
  Barnyardgrass plant response rating (0 to 100 scale): 100
[12]; [28]
  Horseweed plant response rating (0-100): 80
[12]; [29]
  Horseweed plant response rating (0 to 100 scale): 90
[13]; [28]
  Wheat plant response rating (0-100): 90
[13]; [29]
  Wheat plant response rating (0 to 100 scale): 90
[14]; [28]
  Foxtail, Green plant response rating (0-100): 90
[14]; [29]
  Foxtail, Green plant response rating (0 to 100 scale): 90
Corn (Zea mays) [15]; [28]
  Corn plant response rating (0-100): 100
Corn (Zea mays) [15]; [29]
  Corn plant response rating (0 to 100 scale): 100
Kochia (Bassia scoparia) [16]; [28]
  Kochia plant response rating (0-100): 80
Kochia (Bassia scoparia) [16]; [29]
  Kochia plant response rating (0 to 100 scale): 90
[17]; 31 g ai/ha
  Oat, Wild plant response rating (0-100): 20
[17]; 125 g ai/ha
  Oat, Wild plant response rating (0 to 100 scale): 60
[18]; 31 g ai/ha
  Ryegrass, Italian plant response rating (0-100): 80
[18]; 125 g ai/ha
  Ryegrass, Italian plant response rating (0 to 100 scale): 90
[19]; 31 g ai/ha
  Ragweed plant response rating (0-100): 0
[19]; 125 g ai/ha
  Ragweed plant response rating (0 to 100 scale): 70
[20]; 31 g ai/ha
  Blackgrass plant response rating (0-100): 80
[20]; 125 g ai/ha
  Blackgrass plant response rating (0 to 100 scale): 90
[21]; 31 g ai/ha
  Amaranth, Palmer plant response rating (0-100): 30
[21]; 125 g ai/ha
  Amaranth, Palmer plant response rating (0 to 100 scale): 90
Soybean (Glycine max) [22]; 31 g ai/ha
  Soybean plant response rating (0-100): 10
Soybean (Glycine max) [22]; 125 g ai/ha
  Soybean plant response rating (0 to 100 scale): 70
[23]; 31 g ai/ha
  Barnyardgrass plant response rating (0-100): 60
[23]; 125 g ai/ha
  Barnyardgrass plant response rating (0 to 100 scale): 100
[24]; 31 g ai/ha
  Wheat plant response rating (0-100): 80
[24]; 125 g ai/ha
  Wheat plant response rating (0 to 100 scale): 90
[25]; 31 g ai/ha
  Foxtail, Green plant response rating (0-100): 70
[25]; 125 g ai/ha
  Foxtail, Green plant response rating (0 to 100 scale): 100
Corn (Zea mays) [26]; 31 g ai/ha
  Corn plant response rating (0-100): 30
Corn (Zea mays) [26]; 125 g ai/ha
  Corn plant response rating (0 to 100 scale): 80
Kochia (Bassia scoparia) [27]; 31 g ai/ha
  Kochia plant response rating (0-100): 0
Kochia (Bassia scoparia) [27]; 125 g ai/ha
  Kochia plant response rating (0 to 100 scale): 90
